Consider 2 compounds from patent US20220079909A1, “Food Supplement For Improving Sports Performance” (NUTRIBAM BV, priority 2019, published 2022).

The experiment has as its system male subjects. Nature of the experiment: Synergetic efficiency of sulphoraphane and curcumin in four groups: training diary, HRV, RHR (Example 4). In kind it is in vivo, human. To be noted: 5-day period; for muscle pain and fatigue during the day (training diary): oral daily dose, compared to the negative control (Group nC, Gatorade powder); for HRV and RHR indices (overtraining): compared to the negative control (Group nC). On the procedure: The synergetic efficiency of a composition comprising both sulphoraphane and curcumin, was analysed. This analysis was realized, for monitoring the performances and recuperation of subjects, after doing a daily physical activity. The monitoring was done by means of a training diary which had to be completed three times a day, as well as by measuring the 'heart rate variability' (HRV), and the 'rest hear rate' (RHR) of these subjects. The HRV was analysed under controlled laboratory circumstances, before and after doing the prescribed daily physical activity. Analogously, the RHR was analysed under controlled laboratory circumstances, before and after doing the prescribed daily physical activity. The training diary was made up of a questionnaire, which needed to be completed by means of a scale of five (scale of […]). Questions were asked about possible muscle pain of the subjects, but also for example their energy level during the different moments of the day. 37 male subjects were selected to take part in the experiment. Their physical characteristics were as follows (average and SD): age 27.6 SD:1.6 years; weight 79.3 SD:2.1 kg; length 184 SD:3 cm. The subjects were divided into 4 groups: a group receiving only curcumin (Group C, n=10) (daily dose of 50 mg), a group receiving only sulphoraphane (Group S, n=10) (daily dose 25 mg), a group receiving both curcumin and sulphoraphane (Group C+S, n=10) (the same concentrations as the controls), and finally, a negative control was included in the experiment, it comprises a group receiving a similar dose of placebo, thereto Gatorade powder was used (Group nC, n=7). Each subject was asked to take a prescribed daily dose for five successive days. Each dose was dissolved in hot water. During this period, the subjects also had to follow a similar protein diet. The whole experiment was divided into 4 time periods, here, the different groups were tested successively. Between the different time periods, a two-week period was provided in which no experiment was carried out. The different compositions were administered orally every day in the form of a powder or dispersed in a drink. The daily dose of this powder for Group C comprised […] and 950 mg of Gatorade powder. The daily dose of this powder for Group S comprised […] and 950 mg of Gatorade powder. The daily dose of this powder for Group C+S comprised 25 mg of sulphoraphane, 50 mg of curcumin and 950 mg of Gatorade powder. The daily dose of this powder for Group nC comprised 1000 mg of Gatorade powder.

As to `C[S+]([O-])CCCCN=C=S` (stereo not shown) [Group S, 1-isothiocyanato-4-methyl sulfinyl butane], the “muscle pain and fatigue during the day (training diary)” value was “less muscle pain and fatigue”; the “HRV and RHR indices (overtraining)” value is “will probably overtrain less”.

For the compound `COc1cc(/C=C/C(=O)CC(=O)/C=C/c2ccc(O)c(OC)c2)ccc1O` [Group C, curcumin], the “muscle pain and fatigue during the day (training diary)” value is “less muscle pain and fatigue”; the “HRV and RHR indices (overtraining)” value is given as “will probably overtrain less”.
